Read-outs that look alike come from different tables or passages of the source.
Tests used:
[1] = test system: Vitex extra cellular peroxidase; type: biochemical, Vitex negundo
[2] = test system: callus cultures of Nirgundi (Vitex negundo); test: Effect of growth regulators on callus growth and enzyme activity of callus cultures; type: cell-based; conditions: MS medium, Vitex negundo leaf callus; result in words
Text: Leaf tissues were taken as explants for callus initiation after being properly washed in 10% Labolene followed by surface sterilization in 0.1% Mercuric chloride under aseptic conditions and inoculated in Murashige and Skoog (MS) medium containing 3% sucrose, 0.8% agar in addition to plant growth regulators like kinetin (6-furfuryl amino purine), BAP (benzyl amino purine), 2,4-D (2,4-dichlorophenoxyacetic acid), NAA (naphthalene acetic acid), IBA (indole-3-butyric acid) alone and in different combinations and sub culturing was also done in similar hormone combinations for proliferation. When no hormone was supplied in the medium, callus growth was very slow albeit showing good peroxidase activity. […] The pH was kept at 5.8 in all the experiments. Once established, the liquid suspension was maintained by the sub-culturing of 10 ml each of 7 day culture into 100 ml of fresh media in 250 ml Erlenmeyer flasks and the CCAs were also maintained by the subsequent sub-culturing of 5 g each of the sample into fresh liquid media and the flasks were placed on a gyratory shaker at 120 rpm in the light at 25° C. Viability as well as activity was maintained even after a period of 6 months.

SMILES | Relative activity(%) ([1]; Reagent 1 Mm, None = 100) | Effect on Vitex peroxidase activity (inhibitor / enhancer / no change) ([1]; result in words) | further results
[N-]=[N+]=[N-].[Na+] [NaN3, sodium azide] | 73% | enhancers | inhibition (reduction in activity) ([1]; 0.1 ml of 1 mM sodium azide in 2.4 ml of total assay volume): 30%
O=S(=O)([O-])[O-].[Mg+2] [MgSO4] | 97% | no change in activity | –
[Cl-].[Na+] [NaCl] | – | – | Effect on Vitex peroxidase activity (inhibitor / enhancer / no change) [1]: enhancers; Relative activity(%) [1]: 110%
O=C(O)Cc1c[nH]c2ccccc12 [IAA] | – | – | Effect on callus growth and enzyme activity [2]: reduce both the callus growth as well as enzyme activity
O=C(O)COc1ccc(Cl)cc1Cl [2,4-D, 2,4-dichlorophenoxyacetic acid] | – | – | Effect on callus growth and enzyme activity [2]: reduce both the callus growth as well as enzyme activity
[I-].[K+] [KI] | 116% | – | –
O=S(=O)([O-])[O-].[Zn+2] [ZnSO4] | 138% | enhancers | –
c1ccc(CNc2ncnc3[nH]cnc23)cc1 [BA, benzyl amino purine] | – | – | Effect on callus growth and enzyme activity [2]: better callus growth as well as enzyme activity
[Ca+2].[Cl-].[Cl-] [CaCl2] | 103% | no change in activity | –
[Cl][Hg][Cl] [HgCl2] | 62% | Inhibitors | inhibition ([1]; HgCl2, text b118): 60%
O=C(O)CN(CCN(CC(=O)O)CC(=O)O)CC(=O)O [EDTA] | – | – | Effect on Vitex peroxidase activity (inhibitor / enhancer / no change) [1]: enhancers; Relative activity(%) [1]: 113%
O=S(=O)([O-])[O-].[Mn+2] [MnSO4] | 131% | enhancers | –
